Source: PMC3261944, “The in Vitro Estrogenic Activities of Polyfluorinated Iodine Alkanes” (Environmental Health Perspectives, 2011)

What was measured:
TFF1 (pS2) = test: Expression of estrogen-responsive gene TFF1 (quantitative RT-PCR); type: cell-based, Human; settings: MCF-7 cells, 48 hr, vs 0.1% ethanol; 50 μM PFBI, PFHxI, PFOI, PFBDI, PFOA, PFOC, PFOB, 1-iodohexane, 4:2 FTI, 6:2 FTI; 40 μM PFDI, PFDoI, PFODI, 8:2 FTI, 10:2 FTI; 20 μM PFHxDI; 100 pM E2
Procedure: (§1) RNA isolation and reverse transcription polymerase chain reaction (RT-PCR). MCF-7BUS cells were seeded in six-well plates at the density of 1.0 × 10^6 cells per well, starved in SF medium for 48 hr, and exposed to test compounds for 48 hr. First, cells were rinsed twice with cold phosphate-buffered saline, and total RNA was isolated using Trizol reagent (Invitrogen Inc., Carlsbad, CA, USA) following the manufacturer’s protocol. The 260 nm and 280 nm absorbance reading of total RNA was performed using a Nanodrop spectrophotometer (Thermo Scientific, Waltham, MA, USA). The concentration of RNA was quantified by the reading at 260 nm.
(§2) We used a two-step quantitative RT-PCR to quantify gene expression. Total RNA was converted to cDNA using M-MLV (Moloney murine leukemia virus) reverse transcriptase (Promega, Madison, WI, USA) with oligo dT(15), following the manufacturer’s instructions. The final cDNA solution was diluted five times with DNase/RNase-free water (Gibco). Quantitative PCR was performed with a Stratagene MX3005 thermal cycler (Stratagene, La Jolla, CA, USA). PCR reaction mixtures (25 μL) contained 12.5 μL GoTaq Green Master Mix (Promega), 2 μL diluted cDNA, and 0.2 μM sense/antisense primers. The thermal cycle was 5 min at 95°C, followed by 45 cycles of 15 sec at 95°C, 30 sec at 55°C, and 30 sec at 72°C. The primer sequences of early growth response protein 3 (EGR3) were derived from [Terasaka et al. (2004)]. We designed the primers of internal gene β-actin and trefoil factor 1 (TFF1; pS2) with Primer Premier 5 software (Premier Biosoft International, Palo Alto, CA, USA). The primer sequences were as follows: for β-actin (NM_001101), 5´-CACTCT[…]TCCTTCC-3´ (forward) and 5´-[…][…]-3´ (reverse); for EGR3 (NM_004430), 5´-CCATGATTC[…]-3´ (forward) and 5´-GTGGATCTGCTTGTCTTTGAATG-3´ (reverse); and for TFF1 (NM_003225), 5´-AGAAGCG […]-3´ (forward) and 5´-[…][…]-3´ (reverse). The quantification of target gene expression was based on a comparative cycle threshold (Ct) value. We normalized the expression level of each target gene to its reference gene β-actin. The fold change of the target genes was analyzed by the 2^−ΔΔCt method ([Livak and Schmittgen 2001]). We used melting curve analysis and agarose gel electrophoresis to verify the correct PCR products.

MCF-7BUS cells = test: E-screen assay (MCF-7BUS cell proliferation, WST-1); type: cell-based, Human; settings: for E-screen Maximum induction (%): percentage of the maximum proliferation effect of tested compound to that of E2, 6 days exposure; for Proliferation / estrogenic effect in the E-screen assay (in words): within the tested concentration ranges
Procedure: (§3) Cell culture. Human MCF-7BUS breast adenocarcinoma cells and MVLN cells were cultured in 100-mm culture dishes in a humidified atmosphere of 5% CO2 at 37°C. Cells were maintained in Dulbecco’s modified Eagle’s medium (DMEM)/F-12 (Hyclone, Logan, UT, USA) containing 10% fetal bovine serum, 100 U/mL streptomycin-penicillin, 2 mM L-glutamine, and 1% insulin-transferrin-selenium supplement (all from Gibco, Grand Island, NY, USA).
E-screen assay. MCF-7BUS cells were kindly provided by A.M. Soto and C. Sonnenschein (Tufts University School of Medicine, Boston, MA, USA). In response to ERα agonists, the mitotic effect leads to the proliferation of MCF-7BUS cells. […] Cells were trypsinized and plated into the interior 60 wells of 96-well plates at the density of 3,000 cells/well. Before each experiment, cells were starved in steroid-free (SF) medium for 48 hr to minimize the basal hormonal activity during assays. SF medium consisted of phenol red–free DMEM/F-12 (Hyclone) supplemented with 5% dextran-charcoal-treated fetal bovine serum (Hyclone), 100 U/mL streptomycin-penicillin, and 2 mM L-glutamine. […] We used a WST-1 proliferation kit (Roche Diagnostics, Mannheim, Germany) to assess proliferation after 6 days of exposure according to the kit instructions. The WST-1 assay is based on the enzymatic cleavage of the tetrazolium salt WST-1 to formazan by cellular mitochondrial dehydrogenases present in viable cells. The absorbance of the WST-1 solution was detected by a microplate reader (Varioskan Flash, Thermo Fisher Scientific, Waltham, MA, USA) at 450 nm, with the reference wave length at 690 nm. The cell proliferation effect was calculated from the solvent control (0.1% ethanol)-corrected absorbance and expressed as the percentage of maximal absorbance of the positive control. Three replicates were used in each experiment.
(§4) The concentration–response analyses were performed with four-parameter logistic curve regression analysis according to the following formula:
(§5) y = minimum + (maximum – minimum) ÷ [1 + (x/EC50)^Hill slope], [1]
(§6) where y is the response value, x is the log concentration of the test compound, and EC50 is the concentration that induces half of the maximum proliferation effect or luciferase activity.
EC50 values were calculated from this nonlinear regression model. EC20 were calculated as […]

EGR3 = test: Expression of estrogen-responsive gene EGR3 (quantitative RT-PCR); type: cell-based, Human; settings: MCF-7 cells, 48 hr, vs 0.1% ethanol; 50 μM PFBI, PFHxI, PFOI, PFBDI, PFOA, PFOC, PFOB, 1-iodohexane, 4:2 FTI, 6:2 FTI; 40 μM PFDI, PFDoI, PFODI, 8:2 FTI, 10:2 FTI; 20 μM PFHxDI; 100 pM E2
Procedure: as §1, §2

ER = biological target: T1, ER (Homo sapiens, UniProt P03372); test: MVLN assay (estrogen-responsive luciferase reporter transactivation); type: cell-based; settings: for MVLN assay Maximum induction (%): percentage of the maximum induction (luciferase) of tested compound to that of E2, 2 days exposure; for Luciferase induction / estrogenic effect in the MVLN assay (in words): within the tested concentration ranges
T1 construct: This cell line was stably transfected with the luciferase reporter gene and estrogen-responsive element derived from the Xenopus vitellogenin A2 gene; endogenous in cells; host or cells: MVLN cells (provided by J.P. Giesy)
T1 sequence (P03372 1-595): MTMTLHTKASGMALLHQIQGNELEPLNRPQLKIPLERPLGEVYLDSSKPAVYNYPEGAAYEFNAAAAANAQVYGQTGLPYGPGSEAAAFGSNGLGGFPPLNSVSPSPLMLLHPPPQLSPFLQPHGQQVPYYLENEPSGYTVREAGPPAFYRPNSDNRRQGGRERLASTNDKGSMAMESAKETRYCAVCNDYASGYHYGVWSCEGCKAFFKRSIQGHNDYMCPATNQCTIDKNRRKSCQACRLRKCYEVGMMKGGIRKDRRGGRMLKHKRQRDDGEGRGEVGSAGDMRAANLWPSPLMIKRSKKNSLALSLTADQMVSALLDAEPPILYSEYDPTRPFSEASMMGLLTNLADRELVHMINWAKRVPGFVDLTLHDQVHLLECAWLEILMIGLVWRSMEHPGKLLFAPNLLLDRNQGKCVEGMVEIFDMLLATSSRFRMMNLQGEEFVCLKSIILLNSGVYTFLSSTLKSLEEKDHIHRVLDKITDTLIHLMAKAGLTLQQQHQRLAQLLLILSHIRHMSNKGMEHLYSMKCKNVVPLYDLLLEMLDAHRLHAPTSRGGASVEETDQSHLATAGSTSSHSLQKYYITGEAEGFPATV
Procedure: as §3
MVLN assay. The MVLN cell line was kindly provided by J.P. Giesy (Michigan State University, East Lansing, MI, USA). This cell line was stably transfected with the luciferase reporter gene and estrogen-responsive element derived from the Xenopus vitellogenin A2 gene. […] Cells were seeded in the interior 60 wells of a 96-well ViewPlate (Packard Instrument Company, Boston, MA, USA) at a density of 7 × 10^4 cells/well, starved in SF medium for 48 hr, and exposed to test compounds for 2 days. […] Luciferase activity was measured with the LucLite kit (Packard Instruments) according to the manufacturer’s protocol. We measured luminescence by microplate reader (Varioskan Flash) and integrated the luminescence signal for 10 sec. Total protein content was measured by the Bradford assay (Tiangen, Beijing, China) to normalize luminescent units. The results are given as relative luminescent unit per microgram protein. The maximal induction of positive control (corrected for solvent control, 0.1–0.2% ethanol) was set as 100%, and the responses of other chemicals were converted to a percentage of the maximum level. Three replicates were used in each experiment. The cytotoxicity of tested chemicals was examined by WST-1 kit in parallel and routinely observed under microscope to identify the exposure concentration range.
as §4, §5, §6
EC50 values were calculated from this nonlinear regression model. EC20 were calculated as
ECx = [x/(100 – x)]^(1/Hill slope) × EC50, [2]

| SMILES | TFF1 mRNA expression, fold up-regulation (TFF1 (pS2)) | E-screen Maximum induction (%) (MCF-7BUS cells) | Proliferation / estrogenic effect in the E-screen assay (in words) (MCF-7BUS cells) | EGR3 mRNA expression, fold up-regulation (EGR3) | MVLN assay Maximum induction (%) (ER) | Luciferase induction / estrogenic effect in the MVLN assay (in words) (ER) | EC50 (MCF-7BUS cells; Homo sapiens, MCF7/BUS, 144 h, read-out: E-screen EC50) | E-screen Relative potency (MCF-7BUS cells; ratio of EC50 of E2 to that of test compound) | EC50 (ER) | Luciferase activity on coexposure with OHT (ER; OHT 10 nM coexposed with 100 μM PFHxI, 100 μM PFOI, 100 μM PFBDI, 20 μM PFHxDI or 40 μM PFODI) | MVLN assay Relative potency (ER; footnote: ratio of EC50 of E2 to that of test compound, text: based on EC20) | MVLN assay EC20 (ER; luciferase activity, 2 days, from Hill slope and EC50) |
| --- | --- | --- | --- | --- | --- | --- | --- | --- | --- | --- | --- | --- |
| CCCCCCI [1-Iodohexane, reference compound] | did not affect the expression | NDd (The maximum relative proliferation effect was < 7%) | negative results | did not affect the expression | NDe (The maximum relative luciferase activity was < 5%) | negative results |  |  |  |  |  |  |
| FC(F)(F)C(F)(F)C(F)(F)C(F)(F)I [PFBI, 1-iodoperfluorobutane] | did not affect the expression | NDd (The maximum relative proliferation effect was < 7%) | did not show proliferation effects | did not affect the expression |  |  |  |  |  |  |  |  |
| FC(F)(F)C(F)(F)C(F)(F)C(F)(F)C(F)(F)C(F)(F)C(F)(F)C(F)(F)C(F)(F)C(F)(F)I [PFDI, 1-iodoperfluorodecane] | did not affect the expression | NDd (The maximum relative proliferation effect was < 7%) | did not show proliferation effects | did not affect the expression |  |  |  |  |  |  |  |  |
| FC(F)(F)C(F)(F)C(F)(F)C(F)(F)C(F)(F)C(F)(F)C(F)(F)C(F)(F)C(F)(F)C(F)(F)C(F)(F)C(F)(F)I [PFDoI, 1-iodoperfluorododecane] | did not affect the expression | NDd (The maximum relative proliferation effect was < 7%) | did not show proliferation effects | did not affect the expression |  |  |  |  |  |  |  |  |
| FC(F)(F)C(F)(F)C(F)(F)C(F)(F)C(F)(F)C(F)(F)C(F)(F)C(F)(F)Br [PFOB, 1-bromoperfluorooctane, reference compound] | did not affect the expression | NDd (The maximum relative proliferation effect was < 7%) | negative results | did not affect the expression | NDe (The maximum relative luciferase activity was < 5%) | negative results |  |  |  |  |  |  |
| FC(F)C(F)(F)C(F)(F)C(F)(F)C(F)(F)C(F)(F)C(F)(F)C(F)(F)F [PFOC, 1H-perfluorooctane, reference compound] | did not affect the expression | NDd (The maximum relative proliferation effect was < 7%) | negative results | did not affect the expression | NDe (The maximum relative luciferase activity was < 5%) | negative results |  |  |  |  |  |  |
| FC(F)(F)C(F)(F)C(F)(F)C(F)(F)C(F)(F)C(F)(F)C(F)(F)C(F)(F)I [PFOI, 1-iodoperfluorooctane] |  | 101% | produced full concentration–response curves | 3.6 fold | 25% | induced luciferase activity in a dose-related manner | 1.15 µM | 2.7 × 10^–6 | 35.1 µM | marked reduction of luciferase activity | 0.2 × 10^–6 | 20.4 µM |
